From paper PMC3304006 (Journal of the American Chemical Society, 2012)

Target: free peptide Cys-Lys-D-Ala-D-Ala
Test: SPR binding to immobilized free peptide
Conditions: read-out: KD values from the current work, Free peptide, equilibrium fit, 25 °C

| Kd [µM] | Compound |
| --- | --- |
| 2.42 ± 0.68 | Ristocetin |
| 0.855 ± 0.1 | CN[C@H]1C(=O)N[C@@H]2Cc3ccc(cc3)Oc3cc4cc(c3O[C@@H]3O[C@H](C(=O)O)[C@@H](O)[C@H](O)[C@H]3NC(=O)CCCCCCCCC(C)C)Oc3ccc(cc3Cl)[C@@H](O)[C@@H]3NC(=O)[C@H](NC(=O)[C@@H]4NC(=O)[C@@H](NC2=O)c2cc(cc(O)c2Cl)Oc2cc1ccc2O)c1ccc(O)c(c1)-c1c(O[C@H]2O[C@H](CO)[C@@H](O)[C@H](O)[C@@H]2O)cc(O)cc1[C@@H](C(=O)NCCCN(C)C)NC3=O [Dalbavancin] |

| Compound | Kd [µM] |
| --- | --- |
| CN[C@H](CC(C)C)C(=O)N[C@H]1C(=O)N[C@@H](CC(N)=O)C(=O)N[C@H]2C(=O)N[C@H]3C(=O)N[C@H](C(=O)N[C@H](C(=O)O)c4cc(O)cc(O)c4-c4cc3ccc4O)[C@H](O)c3ccc(c(Cl)c3)Oc3cc2cc(c3O[C@@H]2O[C@H](CO)[C@@H](O)[C@H](O)[C@H]2O[C@H]2C[C@](C)(N)[C@H](O)[C@H](C)O2)Oc2ccc(cc2Cl)[C@H]1O [Vancomycin] | 4.16 ± 0.52 |
